# Like-named read-outs stand apart in the source and are kept apart here.
# Legend:
# [1] = test system: ileum isolated from guinea-pig; assay: Test of ileum isolated from guinea-pig; settings: Cavia porcellus, agonist activity, Tyrode solution, 37° C., read-out: pD2 (negative logarithm of the dose which produces 50% of the maximum effect) (converted)
# Method: Pieces of ileum are removed from guinea-pigs killed by decapitation. The isolated ileum is placed in 10 cm^3 of Tyrode solution at 37° C. and aerated with a mixture of oxygen (95%) and carbon dioxide gas (5%). The contractions due to the products are registered by means of a detector connected to a polygraph. […].
# The possible antagonist activity of the products is tested vis-a-vis acetylcholine.
# The agonist activity is expressed in pD2 (negative logarithm of the dose which produces 50% of the maximum effect).
# The antagonist activity is expressed in DE50 (dose reducing by 50% the maximum response induced by acetylcholine).
# [2] = test system: central cholinergic system; settings: in vivo; cited from earlier work
# [3] = intravenous route; cited from earlier work
# in vivo [4] = assay: in vivo; design: species or system male mice (CD1 Charles Rivers); settings: oral route, male CD1 mice, method of Miller and Tainter; for ED50: mouse, in vivo, read-out: DE50 (dose which causes diarrhoea in 50% of the animals)
# Method: The test is carried out on male mice (CD1 Charles Rivers) weighing 25 to 30 g, which have fasted for 6 hours. The product dissolved at 5% in methocel is administered by oral route by means of an oesophage probe.
# Control animals receive only the excipient.
# After treatment, the animals are placed separately in cages of which the base is covered with blotting paper, and they are put under observation for 30, 60, 120 and 180 minutes.
# The sheets of absorbent paper are changed after each observation.
# The consistency of the feces is evaluated according to the method of Randall and Baruth (Arch. Int. Pharmacodyn. 220, 94, 1976) according to the following scale of values.
# 1: feces slightly soft, with or without a damp halo,
# 2: feces slightly soft, with a well-defined circle of humidity,
# 3: feces soft with a large circle of humidity,
# 4: feces without consistency with a very large circle of humidity.
# For each product, the dose is noted which causes diarrhoea in 50% of the animals according to the method of Miller and Tainter (Proc. Soc. Exp. Biol. Med., 57, 261, 1944).
# Hypothermic activity = format: in vivo, male mice (CD1 Charles Rivers); settings: Mus musculus, read-out: Effective dose (-1° C.)
# Method: (§1) The test is carried out on male mice (CD1 Charles Rivers) weighing 25-30 g, which have fasted for 6 hours.
# The temperature of the body is noted by means of a thermocouple inserted about 1.5 cm in the rectum and connected to an electric temperature recorder.
# The products are administered by oral or sub-cutaneous route and the temperatures are noted at the instant 0 and at 30 minutes, 1 hour, 2 hours and 2-and-a-half hours after treatment.
# The degree of hypothermia is evaluated as the difference between the treated animals and the controls, and the dose necessary to reduce the body temperature by 1° C. is noted.
# in vivo [5] = settings: mouse, po
# Method: The test was carried out on male mice (CD1 Charles Rivers), of 22 to 24 g, without food for 16 hours. […] The mortality is noted during the 7 days following the treatment.
# [6] = Variation of the body temperature (duration of action); format: in vivo, male mice (CD1 Charles Rivers)
# Method: as §1
# The temperature of the body is noted by means of a thermocouple inserted about 1.5 cm in the rectum and connected to an electric temperature recorder. […]
# The duration of action of the products is determined, using the doses able to reduce the temperature by 1° to 1.5° C.
structure (smiles),measurement,setting,value
"COC(=O)C1=CCCN(C)C1 [Arecoline, arecoline, reference compound]",EC50,[1],0.331 µM
same,duration of action of arecoline,[2],short duration of action
same,effect on patients having a memory defect,[3],positive effect
same,DE50 (dose which causes diarrhoea in 50% of the animals),in vivo [4],35 mg/kg
same,ED (-1 C),Hypothermic activity; oral route (O.R.),194 mg/kg
same,ED (-1 C),Hypothermic activity; sub-cutaneous route (SC.R),3 mg/kg
"CON=CC1=CCCN(C(=O)Oc2ccc(C(C)C)cc2)C1 [Example 13, Methyl ether of 1-p-isopropylphenyloxycarbonyl-1,2,5,6-tetrahydropyridin-3-carboxaldehyde oxime]",LD50 at 168 h,in vivo [5],> 1000 mg/kg
same,EC50,[1],> 100 µM
same,Variations of the body temperature,"[6]; 6.25 mg/kg os, 0 min",+0.2 °C
same,Variations of the body temperature,"[6]; 6.25 mg/kg os, 30 min",-0.4 °C
same,Variations of the body temperature,"[6]; 6.25 mg/kg os, 60 min",-1.6 °C
same,Variations of the body temperature,"[6]; 6.25 mg/kg os, 120 min",-0.4 °C
same,Variations of the body temperature,"[6]; 6.25 mg/kg os, 180 min",-0.1 °C
same,Variations of the body temperature,"[6]; 12.5 mg/kg sc, 0 min",+0.2 °C
same,Variations of the body temperature,"[6]; 12.5 mg/kg sc, 60 min",-0.7 °C
same,Variations of the body temperature,"[6]; 12.5 mg/kg sc, 120 min",-1.4 °C
same,Variations of the body temperature,"[6]; 12.5 mg/kg sc, 180 min",-1.1 °C
same,ED50,in vivo [4],> 50 mg/kg
same,ED (-1 C),Hypothermic activity; oral route (O.R.),3.4 mg/kg
same,ED (-1 C),Hypothermic activity; sub-cutaneous route (SC.R),8.8 mg/kg
CON=CC1=CCCN(C(=O)Oc2ccc(OC)c(OC)c2)C1 [Example 14],LD50 at 168 h,in vivo [5],175 mg/kg
same,EC50,[1],> 100 µM
same,Variations of the body temperature,"[6]; 1. mg/kg os, 0 min",+0.1 °C
same,Variations of the body temperature,"[6]; 1. mg/kg os, 30 min",-1.1 °C
same,Variations of the body temperature,"[6]; 1. mg/kg os, 60 min",-1.4 °C
same,Variations of the body temperature,"[6]; 1. mg/kg os, 120 min",-0.2 °C
same,Variations of the body temperature,"[6]; 1. mg/kg os, 180 min",+0.1 °C
same,Variations of the body temperature,"[6]; 1. mg/kg sc, 0 min",+0.2 °C
same,Variations of the body temperature,"[6]; 1. mg/kg sc, 30 min",-0.7 °C
same,Variations of the body temperature,"[6]; 1. mg/kg sc, 60 min",-1.3 °C
same,Variations of the body temperature,"[6]; 1. mg/kg sc, 120 min",-0.5 °C
same,ED50,in vivo [4],> 50 mg/kg
same,ED (-1 C),Hypothermic activity; oral route (O.R.),0.7 mg/kg
same,ED (-1 C),Hypothermic activity; sub-cutaneous route (SC.R),0.7 mg/kg
